Columns and labels:
Estrogen receptor = biological target: T1, Estrogen receptor (Homo sapiens, UniProt P03372)
T1 sequence (P03372 whole entry): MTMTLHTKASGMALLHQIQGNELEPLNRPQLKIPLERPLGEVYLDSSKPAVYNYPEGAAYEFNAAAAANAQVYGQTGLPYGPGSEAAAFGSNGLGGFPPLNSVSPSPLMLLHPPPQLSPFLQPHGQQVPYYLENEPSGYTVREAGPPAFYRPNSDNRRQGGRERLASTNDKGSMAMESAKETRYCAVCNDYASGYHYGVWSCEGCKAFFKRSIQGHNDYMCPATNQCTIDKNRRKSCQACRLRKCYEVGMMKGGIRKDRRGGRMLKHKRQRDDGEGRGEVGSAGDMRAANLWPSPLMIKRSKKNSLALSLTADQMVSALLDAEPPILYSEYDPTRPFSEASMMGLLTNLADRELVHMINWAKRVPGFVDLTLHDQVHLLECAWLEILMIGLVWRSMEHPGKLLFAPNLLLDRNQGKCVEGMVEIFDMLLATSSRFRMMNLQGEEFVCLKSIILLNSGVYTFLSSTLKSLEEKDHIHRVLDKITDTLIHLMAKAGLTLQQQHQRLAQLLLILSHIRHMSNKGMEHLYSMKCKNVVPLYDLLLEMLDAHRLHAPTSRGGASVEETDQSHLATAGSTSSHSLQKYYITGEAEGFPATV

Vasopressin V1a receptor = Vasopressin V1a receptor (Homo sapiens, UniProt P37288)
Sequence of Vasopressin V1a receptor (P37288 whole entry): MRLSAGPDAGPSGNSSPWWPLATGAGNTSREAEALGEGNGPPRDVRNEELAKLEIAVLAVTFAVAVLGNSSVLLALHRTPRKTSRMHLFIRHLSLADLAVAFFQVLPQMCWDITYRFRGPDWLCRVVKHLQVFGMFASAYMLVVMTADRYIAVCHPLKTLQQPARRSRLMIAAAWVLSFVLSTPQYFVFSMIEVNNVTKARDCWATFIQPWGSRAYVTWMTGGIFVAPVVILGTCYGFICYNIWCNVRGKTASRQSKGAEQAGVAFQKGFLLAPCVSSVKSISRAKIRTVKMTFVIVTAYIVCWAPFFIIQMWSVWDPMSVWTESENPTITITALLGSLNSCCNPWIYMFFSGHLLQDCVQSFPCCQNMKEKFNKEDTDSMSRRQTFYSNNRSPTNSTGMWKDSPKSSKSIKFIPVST

Adenosine receptor A3 = biological target: T2, Adenosine receptor A3 (Homo sapiens, UniProt P0DMS8)
T2 sequence (P0DMS8 whole entry): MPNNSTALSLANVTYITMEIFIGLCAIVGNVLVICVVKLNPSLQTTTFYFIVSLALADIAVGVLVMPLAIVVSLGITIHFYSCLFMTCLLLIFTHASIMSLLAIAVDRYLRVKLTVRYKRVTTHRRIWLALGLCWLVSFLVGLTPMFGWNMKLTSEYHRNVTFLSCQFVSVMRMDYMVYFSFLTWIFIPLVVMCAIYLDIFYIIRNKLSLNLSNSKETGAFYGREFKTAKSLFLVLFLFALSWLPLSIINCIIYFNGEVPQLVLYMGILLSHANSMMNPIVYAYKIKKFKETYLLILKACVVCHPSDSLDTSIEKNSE

[1] = biological target: Beta-1 adrenergic receptor (Homo sapiens, UniProt P08588); type: functional
Sequence of Beta-1 adrenergic receptor (P08588 whole entry): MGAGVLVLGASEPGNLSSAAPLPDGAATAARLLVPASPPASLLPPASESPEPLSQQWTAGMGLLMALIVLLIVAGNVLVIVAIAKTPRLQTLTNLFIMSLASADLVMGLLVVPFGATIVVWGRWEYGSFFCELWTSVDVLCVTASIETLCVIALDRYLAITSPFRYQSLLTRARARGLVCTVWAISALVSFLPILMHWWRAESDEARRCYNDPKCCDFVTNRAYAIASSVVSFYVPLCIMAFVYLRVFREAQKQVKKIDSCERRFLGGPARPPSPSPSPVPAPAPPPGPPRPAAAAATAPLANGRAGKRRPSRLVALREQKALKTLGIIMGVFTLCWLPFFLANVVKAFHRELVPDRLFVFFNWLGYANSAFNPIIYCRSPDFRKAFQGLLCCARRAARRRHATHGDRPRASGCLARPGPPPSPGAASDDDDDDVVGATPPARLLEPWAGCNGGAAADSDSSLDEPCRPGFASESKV

Cannabinoid receptor 1 = Cannabinoid receptor 1 (Homo sapiens, UniProt P21554); type: functional, cell-based
[2] = biological target: Beta-2 adrenergic receptor (Homo sapiens, UniProt P07550)
Sequence of Beta-2 adrenergic receptor (P07550 whole entry): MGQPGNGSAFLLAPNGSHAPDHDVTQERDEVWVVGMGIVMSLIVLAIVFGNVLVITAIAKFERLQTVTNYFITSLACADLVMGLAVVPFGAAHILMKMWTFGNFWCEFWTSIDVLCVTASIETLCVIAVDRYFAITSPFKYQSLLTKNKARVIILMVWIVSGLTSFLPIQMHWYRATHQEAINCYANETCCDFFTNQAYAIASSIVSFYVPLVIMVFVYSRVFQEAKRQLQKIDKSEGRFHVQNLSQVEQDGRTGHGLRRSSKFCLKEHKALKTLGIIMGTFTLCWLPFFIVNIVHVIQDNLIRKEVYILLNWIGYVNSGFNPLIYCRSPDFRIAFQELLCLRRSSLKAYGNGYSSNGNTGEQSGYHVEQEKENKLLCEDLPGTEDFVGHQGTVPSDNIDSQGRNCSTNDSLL

[3] = biological target: Vascular endothelial growth factor receptor 2 (Homo sapiens, UniProt P35968); type: functional
Sequence of Vascular endothelial growth factor receptor 2 (P35968 whole entry): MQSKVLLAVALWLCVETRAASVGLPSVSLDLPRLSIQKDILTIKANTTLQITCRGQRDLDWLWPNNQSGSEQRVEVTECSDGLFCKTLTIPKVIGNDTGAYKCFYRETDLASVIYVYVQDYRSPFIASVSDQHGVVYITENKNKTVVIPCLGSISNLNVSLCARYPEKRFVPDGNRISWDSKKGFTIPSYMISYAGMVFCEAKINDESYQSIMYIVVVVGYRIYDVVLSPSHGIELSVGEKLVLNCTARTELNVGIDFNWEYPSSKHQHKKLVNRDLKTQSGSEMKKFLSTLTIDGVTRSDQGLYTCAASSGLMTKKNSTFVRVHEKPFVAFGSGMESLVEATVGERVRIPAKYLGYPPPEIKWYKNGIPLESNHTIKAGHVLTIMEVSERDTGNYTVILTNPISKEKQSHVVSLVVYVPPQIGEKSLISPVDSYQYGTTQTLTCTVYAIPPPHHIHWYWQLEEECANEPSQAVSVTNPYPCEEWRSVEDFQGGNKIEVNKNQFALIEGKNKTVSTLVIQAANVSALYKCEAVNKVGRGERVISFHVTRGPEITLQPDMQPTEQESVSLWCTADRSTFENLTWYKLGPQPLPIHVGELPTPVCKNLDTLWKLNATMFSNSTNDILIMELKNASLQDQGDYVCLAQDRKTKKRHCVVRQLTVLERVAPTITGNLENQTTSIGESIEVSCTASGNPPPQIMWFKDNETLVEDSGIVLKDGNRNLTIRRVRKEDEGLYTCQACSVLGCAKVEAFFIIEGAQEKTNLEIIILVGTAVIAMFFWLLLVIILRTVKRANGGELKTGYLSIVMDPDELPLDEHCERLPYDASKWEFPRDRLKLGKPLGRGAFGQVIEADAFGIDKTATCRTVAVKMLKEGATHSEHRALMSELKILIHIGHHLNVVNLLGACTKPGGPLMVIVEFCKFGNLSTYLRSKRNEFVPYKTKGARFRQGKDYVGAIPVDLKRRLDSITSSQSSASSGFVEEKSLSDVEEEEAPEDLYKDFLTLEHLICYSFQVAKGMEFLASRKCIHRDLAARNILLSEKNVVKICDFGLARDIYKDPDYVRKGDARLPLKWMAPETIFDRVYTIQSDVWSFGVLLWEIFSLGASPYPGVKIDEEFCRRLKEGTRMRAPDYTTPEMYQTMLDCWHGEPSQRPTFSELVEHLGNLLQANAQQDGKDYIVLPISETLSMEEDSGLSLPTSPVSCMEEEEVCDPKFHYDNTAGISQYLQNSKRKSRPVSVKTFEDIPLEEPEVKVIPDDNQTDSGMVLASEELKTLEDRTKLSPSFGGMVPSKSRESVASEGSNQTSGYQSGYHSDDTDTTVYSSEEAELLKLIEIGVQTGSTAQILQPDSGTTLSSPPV

[4] = biological target: Growth hormone secretagogue receptor type 1 (Homo sapiens, UniProt Q92847)
Sequence of Growth hormone secretagogue receptor type 1 (Q92847 whole entry): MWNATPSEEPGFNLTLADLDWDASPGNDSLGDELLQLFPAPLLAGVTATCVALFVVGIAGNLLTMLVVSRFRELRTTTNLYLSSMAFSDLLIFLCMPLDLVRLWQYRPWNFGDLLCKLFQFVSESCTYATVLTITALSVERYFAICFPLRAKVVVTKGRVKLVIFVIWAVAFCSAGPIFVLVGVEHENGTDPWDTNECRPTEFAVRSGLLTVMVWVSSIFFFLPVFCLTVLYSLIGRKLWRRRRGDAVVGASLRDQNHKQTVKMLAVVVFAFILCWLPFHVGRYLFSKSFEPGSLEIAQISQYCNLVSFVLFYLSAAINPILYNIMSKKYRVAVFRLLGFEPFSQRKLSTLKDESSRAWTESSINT

[5] = biological target: Delta-type opioid receptor (Homo sapiens, UniProt P41143)
Sequence of Delta-type opioid receptor (P41143 whole entry): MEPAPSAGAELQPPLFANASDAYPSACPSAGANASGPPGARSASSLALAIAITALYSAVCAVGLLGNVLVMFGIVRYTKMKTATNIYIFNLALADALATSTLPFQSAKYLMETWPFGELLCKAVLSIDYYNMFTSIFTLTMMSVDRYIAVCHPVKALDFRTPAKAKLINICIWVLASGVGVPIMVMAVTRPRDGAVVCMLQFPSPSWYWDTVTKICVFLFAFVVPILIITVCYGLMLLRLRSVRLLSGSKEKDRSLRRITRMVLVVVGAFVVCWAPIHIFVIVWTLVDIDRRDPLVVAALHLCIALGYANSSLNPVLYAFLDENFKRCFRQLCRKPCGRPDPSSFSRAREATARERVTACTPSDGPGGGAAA

Mu-type opioid receptor = Mu-type opioid receptor (Homo sapiens, UniProt P35372)
Sequence of Mu-type opioid receptor (P35372 whole entry): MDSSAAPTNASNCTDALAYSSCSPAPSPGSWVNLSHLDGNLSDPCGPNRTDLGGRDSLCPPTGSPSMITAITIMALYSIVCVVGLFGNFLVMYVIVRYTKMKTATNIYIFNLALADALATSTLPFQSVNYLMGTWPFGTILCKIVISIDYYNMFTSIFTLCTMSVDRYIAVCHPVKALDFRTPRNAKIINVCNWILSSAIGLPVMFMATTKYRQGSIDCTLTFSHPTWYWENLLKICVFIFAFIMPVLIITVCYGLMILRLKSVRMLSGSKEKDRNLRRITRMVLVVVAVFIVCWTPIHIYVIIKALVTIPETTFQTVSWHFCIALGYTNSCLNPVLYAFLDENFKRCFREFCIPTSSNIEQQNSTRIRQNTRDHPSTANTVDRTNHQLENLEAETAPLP

D(3) dopamine receptor = D(3) dopamine receptor (Homo sapiens, UniProt P35462)
Sequence of D(3) dopamine receptor (P35462 whole entry): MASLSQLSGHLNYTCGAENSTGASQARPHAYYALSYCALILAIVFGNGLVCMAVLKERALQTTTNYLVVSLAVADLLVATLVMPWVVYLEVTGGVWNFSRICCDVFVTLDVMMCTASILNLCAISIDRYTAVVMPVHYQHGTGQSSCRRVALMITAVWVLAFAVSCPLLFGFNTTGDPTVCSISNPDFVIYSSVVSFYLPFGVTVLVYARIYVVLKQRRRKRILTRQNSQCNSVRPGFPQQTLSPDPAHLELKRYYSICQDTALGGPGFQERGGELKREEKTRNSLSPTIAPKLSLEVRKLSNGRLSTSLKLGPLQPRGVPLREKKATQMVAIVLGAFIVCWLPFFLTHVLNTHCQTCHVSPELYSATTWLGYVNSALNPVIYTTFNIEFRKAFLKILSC

[6] = biological target: T3, Prostaglandin G/H synthase 1 (Homo sapiens, UniProt P23219); type: functional
T3 sequence (P23219 whole entry): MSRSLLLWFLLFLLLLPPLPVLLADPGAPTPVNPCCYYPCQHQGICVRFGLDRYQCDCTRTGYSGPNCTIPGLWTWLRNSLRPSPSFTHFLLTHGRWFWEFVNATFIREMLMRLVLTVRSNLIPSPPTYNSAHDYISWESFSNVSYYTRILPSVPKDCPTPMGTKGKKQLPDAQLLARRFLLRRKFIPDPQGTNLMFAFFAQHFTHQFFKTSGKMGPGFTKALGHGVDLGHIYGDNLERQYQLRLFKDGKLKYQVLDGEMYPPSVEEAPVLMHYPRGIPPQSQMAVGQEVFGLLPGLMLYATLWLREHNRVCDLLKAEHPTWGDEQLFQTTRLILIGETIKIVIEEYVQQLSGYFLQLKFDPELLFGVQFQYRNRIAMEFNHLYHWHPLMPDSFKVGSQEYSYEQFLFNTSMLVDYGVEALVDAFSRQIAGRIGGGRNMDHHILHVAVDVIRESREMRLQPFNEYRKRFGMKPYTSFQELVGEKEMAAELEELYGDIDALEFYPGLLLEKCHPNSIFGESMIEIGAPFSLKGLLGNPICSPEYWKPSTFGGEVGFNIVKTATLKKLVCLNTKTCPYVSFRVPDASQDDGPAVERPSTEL

[7] = biological target: T3, Prostaglandin G/H synthase 1; type: functional; remark: listed apart in the source
[8] = biological target: T4, Muscarinic acetylcholine receptor M2 (Homo sapiens, UniProt P08172); type: functional, cell-based
T4 sequence (P08172 whole entry): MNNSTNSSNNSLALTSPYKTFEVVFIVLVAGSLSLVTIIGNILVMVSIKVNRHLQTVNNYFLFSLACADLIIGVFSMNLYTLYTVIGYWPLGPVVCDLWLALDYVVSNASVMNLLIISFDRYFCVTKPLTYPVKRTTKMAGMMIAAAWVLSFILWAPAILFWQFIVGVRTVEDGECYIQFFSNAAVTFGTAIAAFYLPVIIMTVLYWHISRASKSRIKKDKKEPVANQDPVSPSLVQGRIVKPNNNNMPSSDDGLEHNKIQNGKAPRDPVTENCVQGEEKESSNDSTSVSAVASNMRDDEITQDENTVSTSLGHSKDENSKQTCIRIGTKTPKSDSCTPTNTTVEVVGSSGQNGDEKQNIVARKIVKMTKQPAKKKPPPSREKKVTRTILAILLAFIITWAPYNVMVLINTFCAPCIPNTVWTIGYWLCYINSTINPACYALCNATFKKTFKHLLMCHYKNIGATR

[9] = biological target: T5, Prostaglandin G/H synthase 1 (Rattus norvegicus, UniProt Q63921); type: functional
T5 sequence (Q63921 whole entry): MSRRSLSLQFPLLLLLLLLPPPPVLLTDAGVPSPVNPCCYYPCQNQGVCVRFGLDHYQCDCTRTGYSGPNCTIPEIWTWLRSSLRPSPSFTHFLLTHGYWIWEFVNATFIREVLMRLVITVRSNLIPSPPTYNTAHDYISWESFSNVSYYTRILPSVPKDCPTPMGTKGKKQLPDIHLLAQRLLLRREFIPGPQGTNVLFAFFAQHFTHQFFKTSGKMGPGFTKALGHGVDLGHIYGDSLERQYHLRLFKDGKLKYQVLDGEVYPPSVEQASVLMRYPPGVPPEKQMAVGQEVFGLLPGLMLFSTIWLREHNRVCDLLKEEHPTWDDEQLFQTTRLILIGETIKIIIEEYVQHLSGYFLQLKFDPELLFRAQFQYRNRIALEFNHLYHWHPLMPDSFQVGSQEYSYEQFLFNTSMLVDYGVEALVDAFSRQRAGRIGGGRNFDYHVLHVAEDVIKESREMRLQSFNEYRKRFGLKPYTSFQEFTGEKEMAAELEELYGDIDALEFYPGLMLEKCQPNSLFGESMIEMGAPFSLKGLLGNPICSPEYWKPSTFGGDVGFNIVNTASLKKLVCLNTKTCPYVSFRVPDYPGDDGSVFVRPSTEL
Also: assay procedure not described here.

| SMILES | AC50 (Estrogen receptor) [µM] | AC50 (Vasopressin V1a receptor) [µM] | AC50 (Adenosine receptor A3) [µM] | AC50 [1] [µM] | AC50 (Cannabinoid receptor 1) [µM] | AC50 [2] [µM] | AC50 [3] [µM] | AC50 [4] [µM] | AC50 [5] [µM] | AC50 (Mu-type opioid receptor) [µM] | AC50 (D(3) dopamine receptor) [µM] | AC50 [6] [µM] | AC50 [7] [µM] | AC50 [8] [µM] | AC50 [9] [µM] |
| --- | --- | --- | --- | --- | --- | --- | --- | --- | --- | --- | --- | --- | --- | --- | --- |
| O=C(O)COCCN1CCN(C(c2ccccc2)c2ccc(Cl)cc2)CC1 (configuration not stated) [CETIRIZINE] | > 30 | > 10 | > 30 | > 10 | > 30 | > 10 | > 30 | > 30 | > 30 | – | – | – | – | – | – |
| C=C1CC[C@H](O)C/C1=C/C=C1\CCC[C@]2(C)[C@@H]([C@H](C)CCCC(C)C)CC[C@@H]12 [CHOLECALCIFEROL] | – | – | – | – | – | – | > 30 | – | – | > 30 | 15.6 | 12.3 | 22.9 | – | – |
| Cc1ncc2c(c1O)COC2c1ccc(Cl)cc1 (configuration not stated) [CICLETANINE] | – | – | – | – | – | – | > 30 | – | – | > 30 | > 30 | > 30 | > 30 | – | – |
| N#Cc1ccc(Oc2ccc3c(c2)COB3O)cc1 [CRISABOROLE] | – | – | – | – | – | – | > 30 | – | – | > 30 | > 30 | > 30 | > 30 | – | – |
| CC(=O)O[C@H]1Cc2ccccc2N(C(N)=O)c2ccccc21 [ESLICARBAZEPINE ACETATE] | – | – | – | – | – | – | > 30 | – | – | > 30 | > 30 | > 30 | > 30 | – | – |
| CC(O)(P(=O)(O)O)P(=O)(O)O [ETIDRONIC ACID] | – | – | – | – | – | – | > 30 | – | – | > 30 | > 30 | > 30 | > 30 | – | – |
| Cc1ccc(S(=O)(=O)NC(=O)NC2CCCCC2)cc1 [GLYCYCLAMIDE] | – | – | – | – | – | – | > 30 | – | – | > 30 | > 30 | > 30 | > 30 | – | – |
| CN1CCCN(C(c2ccccc2)c2ccc(Cl)cc2)CC1 (configuration not stated) [HOMOCHLORCYCLIZINE] | – | – | – | – | – | – | > 30 | – | – | 7.4 | 0.0721 | > 30 | > 30 | – | – |
| CC(COc1ccccc1)NC(C)C(O)c1ccc(O)cc1 (configuration not stated) [ISOXSUPRINE] | – | – | – | – | – | – | > 30 | – | – | 8.69 | 0.037 | > 30 | > 30 | – | – |
| Cc1oc(=O)oc1COC(=O)[C@@H]1N2C(=O)[C@@H](NC(=O)[C@H](N)c3ccccc3)[C@H]2SC1(C)C [LENAMPICILLIN] | – | – | – | – | – | – | > 30 | – | – | > 30 | > 30 | > 30 | > 30 | – | – |
| COc1ccc(OC)c(C(O)C(C)N)c1 (configuration not stated) [METHOXAMINE] | – | – | – | – | – | – | > 30 | – | – | > 30 | > 30 | > 30 | > 30 | – | – |
| CC1(CCN2CCCCC2)C(=O)CCc2ccccc21 (configuration not stated) [NEPINALONE] | – | – | – | – | – | – | > 30 | – | – | > 30 | > 30 | > 30 | > 30 | – | – |
| COc1cccc(C(=O)CCN[C@@H](C)[C@H](O)c2ccccc2)c1 [OXYFEDRINE] | – | – | – | – | – | – | > 30 | – | – | 2.7 | 0.382 | > 30 | > 30 | – | – |
| CC[N+](C)(CC)CCOC(=O)C(O)(c1ccccc1)C1CCCCC1 (configuration not stated) [OXYPHENONIUM] | – | – | – | – | – | – | > 30 | – | – | > 30 | > 30 | > 30 | > 30 | – | – |
| C[C@@H]1C[C@H]2[C@@H]3C[C@H](F)C4=CC(=O)C=C[C@]4(C)[C@H]3[C@@H](O)C[C@]2(C)[C@@]1(O)C(=O)CO [PARAMETHASONE] | – | – | – | – | – | – | > 30 | – | – | > 30 | > 30 | > 30 | > 30 | – | – |
| CCC[C@H](N[C@@H](C)C(=O)N1[C@H](C(=O)O)C[C@@H]2CCCC[C@@H]21)C(=O)OCC [PERINDOPRIL] | – | – | – | – | – | – | > 30 | – | – | > 30 | > 30 | > 30 | > 30 | – | – |
| NNCCc1ccccc1 [PHENELZINE] | – | – | – | – | – | – | > 30 | – | – | > 30 | > 30 | 0.5 | 0.891 | – | – |
| N[C@@H](Cc1ccccc1)C(=O)O [PHENYLALANINE] | – | – | – | – | – | – | > 30 | – | – | > 30 | > 30 | > 30 | 28 | – | – |
| CCCn1cnc2c1c(=O)n(CCCCC(C)=O)c(=O)n2C [PROPENTOFYLLINE] | – | – | – | – | – | – | > 30 | – | – | > 30 | > 30 | > 30 | > 30 | – | – |
| COC(=O)[C@H]1[C@H]2C[C@@H]3c4[nH]c5cc(OC)ccc5c4CCN3C[C@H]2C[C@@H](OC(=O)c2cc(OC)c(OC)c(OC)c2)[C@@H]1OC [RESERPINE] | – | > 10 | 26.5 | > 10 | – | > 10 | > 30 | > 10 | > 30 | 3.77 | > 30 | > 30 | > 10 | > 10 | 18.8 |
| Clc1ccc(C(Cn2ccnc2)OCc2csc3c(Cl)cccc23)c(Cl)c1 (configuration not stated) [SERTACONAZOLE] | – | – | – | – | – | – | > 30 | – | – | 3.59 | 1.78 | 5.34 | 7.68 | – | – |
| CC(OCCN1CCCCCC1)(c1ccccc1)c1ccc(Cl)cc1 (configuration not stated) [SETASTINE] | – | – | – | – | – | – | > 30 | – | – | 3.66 | 0.432 | > 30 | > 30 | – | – |
| CCCSc1nc(N[C@@H]2C[C@H]2c2ccc(F)c(F)c2)c2nnn([C@@H]3C[C@H](OCCO)[C@@H](O)[C@H]3O)c2n1 [TICAGRELOR] | – | – | – | – | – | – | > 30 | – | – | > 30 | 20.5 | 26.2 | > 30 | – | – |
| c1ccc2c(SC3=NCCN3)c[nH]c2c1 [TINAZOLINE] | – | – | – | – | – | – | > 30 | – | – | > 30 | > 30 | > 30 | > 30 | – | – |
| Cc1ccc(C(=O)C(C)CN2CCCCC2)cc1 (configuration not stated) [TOLPERISONE] | – | – | – | – | – | – | > 30 | – | – | > 30 | 2.52 | > 30 | > 30 | – | – |

— ChEMBL document CHEMBL5291721, “A preclinical secondary pharmacology resource illuminates target-adverse drug reaction associations of marketed drugs” (Nat Commun, 2023)
